From patent publication US7456165B2, “HCV NS5B inhibitors” (Bristol-Myers Squibb Company, priority 2006, dated 2008)
Like-named read-outs stand apart in the source and are kept apart here.

How the values were obtained:
HCV NS5B = target: T1, HCV NS5B (Hepatitis C virus genotype 1b, UniProt Q9WMX2); assay: HCV NS5B RdRp enzyme assay (preincubation protocol); type: biochemical; conditions: HCV NS5B RdRp genotype 1b
T1 construct: The protein was expressed with an 18 amino acid C-terminal truncation to enhance the solubility; made in house; host or cells: E. coli BL21(DE3)
Description: HCV NS5B RdRp cloning, expression, and purification. The cDNA encoding the NS5B protein of HCV, genotype 1b, was cloned into the pET21a expression vector. The protein was expressed with an 18 amino acid C-terminal truncation to enhance the solubility. The E. coli competent cell line BL21(DE3) was used for expression of the protein. Cultures were grown at 37° C. for ˜4 hours until the cultures reached an optical density of 2.0 at 600 nm. The cultures were cooled to 20° C. and induced with 1 mM IPTG. Fresh ampicillin was added to a final concentration of 50 μg/ml and the cells were grown overnight at 20° C.
Cell pellets (3 L) were lysed for purification to yield 15-24 mgs of purified NS5B. The lysis buffer consisted of 20 mM Tris-HCl, pH 7.4, 500 mM NaCl, 0.5% triton X-100, 1 mM DTT, 1 mM EDTA, 20% glycerol, 0.5 mg/ml lysozyme, 10 mM MgCl2, 15 ug/ml deoxyribonuclease I, and Complete TM protease inhibitor tablets (Roche). After addition of the lysis buffer, frozen cell pellets were resuspended using a tissue homogenizer. To reduce the viscosity of the sample, aliquots of the lysate were sonicated on ice using a microtip attached to a Branson sonicator. The sonicated lysate was centrifuged at 100,000×g for 1 hr at 4° C. and filtered through a 0.2 μm filter unit (Corning).
The protein was purified using three sequential chromatography steps: Heparin sepharose CL-6B, polyU sepharose 4B, and Hitrap SP sepharose (Pharmacia). The chromatography buffers were identical to the lysis buffer but contained no lysozyme, deoxyribonuclease I, MgCl2 or protease inhibitor and the NaCl concentration of the buffer was adjusted according to the requirements for charging the protein onto the column. Each column was eluted with a NaCl gradient which varied in length from 5-50 column volumes depending on the column type. After the final chromatography step, the resulting purity of the enzyme is >90% based on SDS-PAGE analysis. The enzyme was aliquoted and stored at −80° C.
Standard HCV NS5B RdRp enzyme assay. HCV RdRp genotype 1b assays were run in a final volume of 60 μl in 96 well plates (Costar 3912 H. The assay buffer is composed of 20 mM Hepes, pH 7.5, 2.5 mM KCl, 2.5 mM MgCl2, 1 mM DTT, 1.6 U RNAse inhibitor (Promega N2515), 0.1 mg/ml BSA (Promega R3961), and 2% glycerol. All compounds were serially diluted (3-fold) in DMSO and diluted further in water such that the final concentration of DMSO in the assay was 2%. HCV RdRp genotype 1b enzyme was used at a final concentration of 28 nM. A polyA template was used at 6 nM, and a biotinylated oligo-dT12 primer was used at 180 nM final concentration. Template was obtained commercially (Amersham 27-4110). Biotinylated primer was prepared by Sigma Genosys. 3H-UTP was used at 0.6 μCi (0.29 μM total UTP). Reactions were initiated by the addition of enzyme, incubated at 30° C. for 60 min, and stopped by adding 25 μl of 50 mM EDTA containing SPA beads (4 μg/μl, Amersham RPNQ 0007 H. Plates were read on a Packard Top Count NXT after >1 hr incubation at room temperature.
Modified HCV NS5B RdRp enzyme assay. A modified enzyme assay was performed essentially as described for the standard enzyme assay except for the following: The biotinylated oligo dT12 primer was precaptured on streptavidin-coated SPA beads by mixing primer and beads in assay buffer and incubating at room temperature for one hour. Unbound primer was removed after centrifugation. The primer-bound beads were resuspended in 20 mM Hepes buffer, pH 7.5 and used in the assay at final concentrations of 20 nM primer and 0.67 μg/μl beads. Order of addition in the assay: enzyme (14 nM) was added to diluted compound followed by the addition of a mixture of template (0.2 nM), 3H-UTP (0.6 μCi, 0.29 μM), and primer-bound beads, to initiate the reaction; concentrations given are final. Reactions were allowed to proceed for 4 hours at 30° C.
IC50 values for compounds were determined using seven different [I]. […]

HCV replicon cells = assay: HCV replicon FRET assay; type: cell-based
Text: FRET Assay Preparation. To perform the HCV FRET screening assay, 96-well cell culture plates were used. The FRET peptide (Anaspec, Inc.) (Taliani et al., Anal Biochem. 1996, 240, 60-67) contains a fluorescence donor, EDANS, near one end of the peptide and an acceptor, DABCYL, near the other end. The fluorescence of the peptide is quenched by […] resonance energy transfer (RET) between the donor and the acceptor, but as the NS3 protease cleaves the peptide the products are released from RET quenching and the fluorescence of the donor becomes apparent. The assay reagent was made as follows: 5× cell Luciferase cell culture lysis reagent from Promega (#E153A) diluted to 1× with dH2O, NaCl added to 150 mM final, the FRET peptide diluted to 20 μM final from a 2 mM stock.
To prepare plates, HCV replicon cells, with or without a Renilla luciferase reporter gene, were trypsinized and placed into each well of a 96-well plate with titrated test compounds added in columns 3 through 12; columns 1 and 2 contained a control compound (HCV protease inhibitor), and the bottom row contained cells without compound. The plates were then placed in a CO2 incubator at 37° C.
Assays. Subsequent to addition of the test compounds described above (FRET Assay Preparation), at various times the plate was removed and Alamar blue solution (Trek Diagnostics, #00-100) was added per well as a measure of cellular toxicity. After reading in a Cytoflour 4000 instrument (PE Biosystems), plates were rinsed with PBS and then used for FRET assay by the addition of 30 ul of the FRET peptide assay reagent described above (FRET Assay Preparation) per well. The plate was then placed into the Cytoflour 4000 instrument which had been set to 340 excite/490 emission, automatic mode for 20 cycles and the plate read in a kinetic mode. Typically, the signal to noise using an endpoint analysis after the reads was at least three-fold. Alternatively, after Alamar blue reading, plates were rinsed with PBS, 50 ul of DMEM (high glucose) without phenol red was added and plates were then used for luciferase assay using the Promega Dual-Glo Luciferase Assay System.
Compound analysis was determined by quantification of the relative HCV replicon inhibition and the relative cytotoxicity values. To calculate cytoxicity values, the average Alamar Blue fluorescence signals from the control wells were set as 100% non-toxic. The individual signals in each of the compound test wells were then divided by the average control signal and multiplied by 100% to determine […]. To calculate the HCV replicon inhibition values, an average background value was obtained from the two wells containing the highest amount of HCV protease inhibitor at the end of the assay period. These numbers were similar to those obtained from naïve Huh-7 cells.
The background numbers were then subtracted from the average signal obtained from the control wells and this number was used as 100% activity. The individual signals in each of the compound test wells were then divided by the averaged control values after background subtraction and multiplied by 100% to determine percent activity. EC50 values for a protease inhibitor titration were calculated as the concentration which caused a 50% reduction in FRET or luciferase activity. The two numbers generated for the compound plate, percent cytoxicity and percent activity were used to determine compounds of interest for further analysis.

T1 sequence (Q9WMX2 2420-2992): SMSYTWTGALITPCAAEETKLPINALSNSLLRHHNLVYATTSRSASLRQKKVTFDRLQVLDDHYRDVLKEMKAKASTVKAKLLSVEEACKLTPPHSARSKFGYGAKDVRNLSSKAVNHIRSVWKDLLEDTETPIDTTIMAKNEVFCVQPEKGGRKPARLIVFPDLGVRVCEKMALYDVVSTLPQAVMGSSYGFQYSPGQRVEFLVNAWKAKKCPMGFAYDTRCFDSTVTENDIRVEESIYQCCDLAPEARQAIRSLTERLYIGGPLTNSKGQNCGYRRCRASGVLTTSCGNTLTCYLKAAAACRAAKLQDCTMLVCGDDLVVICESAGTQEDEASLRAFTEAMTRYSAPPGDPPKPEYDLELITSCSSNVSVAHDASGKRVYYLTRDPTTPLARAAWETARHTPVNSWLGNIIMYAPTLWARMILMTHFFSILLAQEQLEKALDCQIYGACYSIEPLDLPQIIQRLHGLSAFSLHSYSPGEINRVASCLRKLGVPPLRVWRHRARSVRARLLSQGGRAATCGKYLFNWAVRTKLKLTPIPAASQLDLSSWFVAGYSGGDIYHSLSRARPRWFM

Row | Structure (SMILES) | IC50 (HCV NS5B) [nM] | EC50 (HCV replicon cells; Hepatitis C virus) [nM] | EC50 (HCV replicon cells) [nM]
1 | COc1ccc2c(c1)CC(c1ncc(CCC(=O)N3CCOCC3)o1)Cn1c-2c(C2CCCCC2)c2ccc(C(=O)O)cc21 (racemic) [Example 50, 13-Cyclohexyl-3-methoxy-6-(5-(3-(4-morpholinyl)-3-oxopropyl)-1,3-oxazol-2-yl)-6,7-dihydro-5H-indolo[2,1-a][2]benzazepine-10-carboxylic acid] | 1 to 500 | 1 to 500 | 
2 | COc1ccc2c(c1)CC(c1ncc(CCC(=O)N3CCOCC3)o1)Cn1c-2c(C2CCCCC2)c2ccc(C(=O)O)cc21 (single isomer, unassigned) [Example 51, 13-Cyclohexyl-3-methoxy-6-(5-(3-(4-morpholinyl)-3-oxopropyl)-1,3-oxazol-2-yl)-6,7-dihydro-5H-indolo[2,1-a][2]benzazepine-10-carboxylic acid] | 1 to 500 |  | > 500
3 | COc1ccc2c(c1)CC(c1ncc(CCC(=O)N3CCOCC3)o1)Cn1c-2c(C2CCCCC2)c2ccc(C(=O)O)cc21 (single isomer, unassigned) [Example 52, 13-Cyclohexyl-3-methoxy-6-(5-(3-(4-morpholinyl)-3-oxopropyl)-1,3-oxazol-2-yl)-6,7-dihydro-5H-indolo[2,1-a][2]benzazepine-10-carboxylic acid] | 1 to 500 |  | 1 to 500
4 | COc1ccc2c(c1)CC(c1ncc(CCC(=O)N3CCOCC3)o1)Cn1c-2c(C2CCCCC2)c2ccc(C(=O)NS(=O)(=O)N(C)C)cc21 (single isomer, unassigned) [Example 53, 13-Cyclohexyl-N-((dimethylamino)sulfonyl)-3-methoxy-6-(5-(3-(4-morpholinyl)-3-oxopropyl)-1,3-oxazol-2-yl)-6,7-dihydro-5H-indolo[2,1-a][2]benzazepine-10-carboxamide] | 1 to 500 | 1 to 500 | 
5 | COc1ccc2c(c1)C[C@H](c1ncc(CCC(=O)N3CCOCC3)o1)Cn1c-2c(C2CCCCC2)c2ccc(C(=O)NS(=O)(=O)N(C)C)cc21 (single isomer, unassigned) [Example 54, 13-cyclohexyl-N-((dimethylamino)sulfonyl)-3-methoxy-6-(5-(3-(4-morpholinyl)-3-oxopropyl)-1,3-oxazol-2-yl)-6,7-dihydro-5H-indolo[2,1-a][2]benzazepine-10-carboxamide] | 1 to 500 | 1 to 500 | 
6 | COC(=O)c1ccc2c(C3CCCCC3)c3n(c2c1)CC(c1nnn[nH]1)=Cc1ccccc1-3 [Example 1, 13-cyclohexyl-6-(1H-tetrazol-5-yl)-7H-indolo[2,1-a][2]benzazepine-10-carboxylic acid, methyl ester] | > 500 | > 500 | 
7 | CCn1nnc(C2=Cn3c(c(C4CCCCC4)c4ccc(C(=O)O)cc43)-c3ccccc3C2)n1 [Example 2, 13-cyclohexyl-6-(2-ethyl-2H-tetrazol-5-yl)-5H-indolo[2,1-a][2]benzazepine-10-carboxylic acid] | 1 to 500 | > 500 | 
8 | CCn1nnc(C2=Cc3ccccc3-c3c(C4CCCCC4)c4ccc(C(=O)O)cc4n3C2)n1 [Example 3, 13-cyclohexyl-6-(2-ethyl-2H-tetrazol-5-yl)-7H-indolo[2,1-a][2]benzazepine-10-carboxylic acid] | 1 to 500 | > 500 | 
9 | CCn1nnc(C2=Cc3ccccc3-c3c(C4CCCCC4)c4ccc(C(=O)NS(=O)(=O)N(C)C)cc4n3C2)n1 [Example 4] | 1 to 500 | > 500 | 
10 | O=C(O)c1ccc2c(C3CCCCC3)c3n(c2c1)CC(c1nnn(CCO)n1)=Cc1ccccc1-3 [Example 5, 13-cyclohexyl-6-[2-(2-hydroxyethyl)-2H-tetrazol-5-yl]-7H-indolo[2,1-a][2]benzazepine-10-carboxylic acid] | > 500 | > 500 | 
11 | O=C(O)c1ccc2c(C3CCCCC3)c3n(c2c1)CC(c1nnn(CC2CC2)n1)=Cc1ccccc1-3 [Example 6, 13-cyclohexyl-6-[2-(cyclopropylmethyl)-2H-tetrazol-5-yl]-7H-indolo[2,1-a][2]benzazepine-10-carboxylic acid] | > 500 | > 500 | 
12 | O=C(O)c1ccc2c(C3CCCCC3)c3n(c2c1)C=C(c1nnn(CC2CC2)n1)Cc1ccccc1-3 [Example 7, 13-cyclohexyl-6-[2-(cyclopropylmethyl)-2H-tetrazol-5-yl]-5H-indolo[2,1-a][2]benzazepine-10-carboxylic acid] | > 500 | > 500 | 
13 | O=C(O)c1ccc2c(C3CCCCC3)c3n(c2c1)CC(c1nnn(CC2CCCO2)n1)=Cc1ccccc1-3 (stereo not shown) [Example 8, 13-cyclohexyl-6-[2-[(tetrahydro-2-furanyl)methyl]-2H-tetrazol-5-yl]-5H-indolo[2,1-a][2]benzazepine-10-carboxylic acid] | 1 to 500 | > 500 | 
14 | COC(=O)c1ccc2c(C3CCCCC3)c3n(c2c1)CC(c1ncc(CCC(=O)N2CCOCC2)o1)Cc1cc(OC)ccc1-3 (stereo not shown) [Example 49, Methyl 13-cyclohexyl-3-methoxy-6-(5-(3-(4-morpholinyl)-3-oxopropyl)-1,3-oxazol-2-yl)-6,7-dihydro-5H-indolo[2,1-a][2]benzazepine-10-carboxylate] | > 500 |  | 
15 | COC(=O)c1ccc2c(C3CCCCC3)c3n(c2c1)CC(c1ncco1)=Cc1cc(OC)ccc1-3 [Example 55, Methyl 13-cyclohexyl-3-methoxy-6-(1,3-oxazol-2-yl)-7H-indolo[2,1-a][2]benzazepine-10-carboxylate] | > 500 |  | 
